Our source for the IC50 values is the Kinase Knowledgebase extract (Sharma et al. 2016).

The assay has as its target CDK2 (UniProt P24941). The experiment in a line: Enzyme Assay.
The compound `CC(C)c1cnn2c(Nc3ccc(S(=O)(=O)N(C)CCO)cc3)cc(OCCN(C)C)nc12` had a concentration for half-maximal inhibition (IC50) of 240 nM. To `CC(C)c1cnn2c(NC3CCN(S(=O)(=O)C(C)C)CC3)cc(N[C@H]3CC[C@H](N)CC3)nc12` belongs 11900 nM.

`N[C@H]1CC[C@H](Oc2cc(Nc3ccc(S(=O)(=O)c4ccccc4)cc3)n3ncc(Br)c3n2)CC1` came in with an IC50 of 15 nM. In turn, `CC(C)c1cnn2c(Nc3ccc(S(C)(=O)=O)cc3)cc(Cl)nc12` showed an IC50 of 220 nM. The value for `CC(C)c1cnn2c(Nc3ccc(S(C)(=O)=O)cc3)cc(OC3CCCCC3)nc12` was 950 nM.

Consider `CC(C)c1cnn2c(Nc3ccc(S(=O)(=O)N(C)C)cc3)cc(Nc3ccncc3)nc12`, for which the IC50 stood at 3090 nM. The value for `N[C@H]1CC[C@H](Nc2cc(Nc3ccc(S(=O)(=O)c4ccccc4)cc3)n3ncc(Cl)c3n2)CC1` was 15 nM; that for `CCc1cnn2c(Nc3ccc(C(N)=O)cc3)cc(N[C@H]3CC[C@@H](N)CC3)nc12` was 350 nM. `COc1cc(Nc2cc(N[C@H]3CC[C@H](N)CC3)nc3c(Br)cnn23)ccc1S(=O)(=O)N(C)C` came in with an IC50 of 270 nM. To `CCNC(=O)N[C@H]1CC[C@H](Nc2cc(Nc3ccc(S(=O)(=O)N(C)C)cc3)n3ncc(C(C)C)c3n2)CC1` belongs 305 nM. The compound `CC(C)c1cnn2c(NCc3ccncc3)cc(-c3cccc(Br)c3)nc12` displayed an IC50 of 530 nM. The value for `CC(C)c1cnn2c(Nc3ccc(S(=O)(=O)N(C)CCO)cc3)cc(NC3CCCC3)nc12` was 302 nM; that for `CC(C)c1cnn2c(Nc3ccc(S(=O)(=O)N4CCCC4)cc3)cc(Cl)nc12` was 270 nM. `CSc1cc(Nc2cc(N[C@H]3CC[C@H](N)CC3)nc3ccnn23)ccc1S(=O)(=O)N(C)C` showed an IC50 of over 50000 nM.

`N[C@H]1CC[C@H](Oc2cc(Nc3ccc(S(=O)(=O)c4ccccc4)cc3)n3ncc(Cl)c3n2)CC1` yielded an IC50 of 45 nM.
